Results published in patent US20150099754A1, “TREATMENT OF CANCER CHARACTERIZED BY GENE MUTATIONS” (SIGNAL PHARMACEUTICALS, LLC, priority 2013, published 2015).
“And” between values parts separate entries of the source, which are not always exact repeats. Identical values can stand only once.

Experiments:
[1] = system: Advanced Solid Tumors, Non-Hodgkin Lymphoma or Multiple Myeloma; assay: Clinical Study A: Phase 1/2 dose finding study of Compound 1 administered orally (tumor response, RECIST 1.1); type: in vivo, human; set-up: key to RECIST* (best target lesion response): PR = partial response; SD = stable disease; PD = progressive disease; NE = nonevaluable; ND = not done
[2] = system: Advanced Solid Tumors, Non-Hodgkin Lymphoma, or Multiple Myeloma; assay: Clinical Study B: Phase 1/2 dose finding study of the mTOR kinase inhibitor Compound 1 administered orally (best RECIST overall response, variants, Tables 2 and 3); type: in vivo, human; set-up: key: PR=partial response; SD=stable disease; PD=progressive disease; NE=non-evaluable; ND=not done; *: Confirmed reponse; conditions: one line per patient
Method: A Phase 1/2, Multi-Center, Open-Label, Dose Finding Study to Assess the Safety. Tolerability, Pharmacokinetics and Preliminary Efficacy of the mTOR Kinase Inhibitor Compound 1 Administered Orally to Subjects with Advanced Solid Tumors, Non-Hodgkin Lymphoma, or Multiple Myeloma.
Compound 1 is administered orally to subjects with advanced solid tumors, non-Hodgkin lymphoma (NHL), or multiple myeloma (MM). The study is designed as a Phase 1/2 trial consisting of two parts: dose escalation (Part A) and dose expansion (Part B).
The primary objectives of the study are (a) to determine the safety and tolerability of Compound 1 when administered orally and to define the non-tolerated dose (NTD) and the maximum tolerated dose (MTD) and (b) to determine the preliminary pharmacokinetics (PK) of Compound 1 following both single and multiple oral dosing of Compound 1.
The secondary objectives of the study are: (a) to evaluate the extent of inhibition of phosphorylation of S6RP (Ser235/236 and/or Ser240/244) and/or 4EB-P1 (Thr37/46) for mTORC1 activity and AKT (Ser473) and/or other relevant biomarkers for mTORC2 activity in peripheral blood samples and tumor biopsies following treatment with Compound 1; (b) to provide information on the preliminary efficacy of Compound 1; and (c) to characterize PK of the metabolite of Compound 1 following oral dosing of Compound 1.
In Part A, subjects will receive single and multiple ascending doses of Compound 1 to measure pharmacokinetics (PK) and identify the maximum tolerated dose (MTD). A modified accelerated titration design (Simon et al, J Nat Cancer Inst (1997) Vol. 89, No. 15) will be used to identify initial toxicity. During the accelerated course, initial cohorts of one subject will be given Compound 1 in dose increments of 100% until the first instance of first-course grade 2 or higher toxicity suspected to be drug-related, at which point the accelerated phase will stop, and that particular cohort will be expanded to a total of 6 subjects. Subsequently, a standard escalation schedule, with approximately 50% dose increments and 6-subject cohorts, will be initiated in order to establish the non-tolerated dose (NTD) and MTD. Smaller increments and additional subjects within a dose cohort may also be evaluated. A dose will be considered the NTD when 2 evaluable subjects in a cohort experience drug-related DLT. When the NTD is established, dose escalation will stop. The MTD is defined as the last dose level below the NTD with 0 or 1 out of 6 evaluable subjects experiencing DLT during Cycle 1. An intermediate dose (ie, one between the NTD and the last dose level before the NTD) or additional subjects within any dose cohort may be required to more precisely determine the MTD.
In Part B, subjects may start Compound 1 at the MTD and/or a lower dose level based on safety, PK and PD data from Part A. Approximately 200 subjects will be treated and evaluated for safety and preliminary antitumor activity after every two cycles of therapy. Selected tumor types include non-small cell lung cancer (NSCLC), glioblastoma multiforme (GBM), hepatocellular carcinoma (HCC), gastrointestinal neuroendocrine tumor (NET) of non-pancreatic origin, hormone receptor positive breast cancer (HRPBC), diffuse large B-cell lymphoma (DLBCL), and multiple myeloma (MM). Up to 40 evaluable subjects will be enrolled for each tumor type.
Men and women, 18 years or older, with advanced NHL, MM, or advanced unresectable solid tumors, including subjects who have progressed on (or not been able to tolerate) standard therapy or for whom no standard anticancer therapy exists.
During the first cycle only in Part A, each subject will be administered a single dose of Compound 1 (Day −1), followed by a 48-hour observation and PK sampling period, followed on Day 1 by daily uninterrupted dosing for 28 days (Cycle 1=30 days). In subsequent Part A cycles, subjects are treated in 28-day cycles with continuous dosing from Day 1 to 28. […]

[3] = system: hematological cancer cell lines; assay: Growth inhibitory effect of Compound 1 (Cell Titer-Glo, 72 hours, GI50) correlated with biomarkers; type: cell-based
Method: Cell Lines and Culture Conditions.
40 hematological cancer cell lines (Table 5) used in the study were purchased commercially. A lung cancer cell line A549 was used as a control cell line. A549 was purchased from National Cancer Institute (NCI) and cultured in RPMI+10% fetal bovine serum (FBS).
Cell pellets were made for 37 cell lines without any compound treatment and a reverse phase protein array (RPPA) was performed as described in Tibes R, et al. Mol Cancer Ther 2006; 5:2512-2521. The RPPA analysis of the 37 hematological cell lines was performed with 262 antibodies. The relative level of each protein in each sample was determined and normalized for protein loading. Protein levels were then transformed to log 2 values and median centered by individual batch.
Cells were lysed in RNeasy kit tissue lysis (RLT) buffer (Qiagen; Valencia, Calif.) and total RNA was isolated using RNeasy. Double-stranded cDNA and biotin-labeled cRNA were synthesized using 100 ng of total RNA using Ambion's MessageAmp Premier RNA Amplification Kit. […]
The seeding density for each cell line was optimized to ensure assay linearity in 384-well plates. […] When ready for testing, plates were removed from the freezer, thawed, and unsealed just prior to the addition of the test cells.
Prior to testing, cells were grown and expanded in culture flasks to provide sufficient amounts of starting material. […] At the time when exposure of cells to compound began (t0), initial cell number was assessed via a viability assay (Cell Titer-Glo) by quantifying the level of luminescence generated by adenosine-5′-triphosphate (ATP) present in viable cells. After 72 hours, cell viability of compound-treated cells was assessed via Cell Titer-Glo and read for luminescence.
Cell lines were assayed for growth inhibition by Compound 1 in at least 3 independent tests. […] The response of the control cell line to the compound was monitored closely to enable comparison of the data generated through the assay period. […] In addition, the IC50 value of Compound 1 for each cell line was calculated.

[4] = system: A549; assay: Repeat testing of pre-spotted Compound 1 plates against the control cell line (A549); type: cell-based; conditions: sealed 384-well plates stored at −20° C. for up to 1 month
Method: The seeding density for each cell line was optimized to ensure assay linearity in 384-well plates. Increasing concentrations of Compound 1 (0.5 nM to 10 μM) were spotted in a 10-point serial dilution fashion (3-fold dilution) in duplicate within the plate via an acoustic dispenser (EDCATS-100) into an empty 384-well plate. The dimethyl sulfoxide (DMSO) concentration was kept constant for a final assay concentration of 0.1% DMSO. Plates were replicated for use against different cell lines and testing periods. After compound plate replication, all plates were sealed (Agilent ThermoLoc) and stored at −20° C. for up to 1 month. […] When ready for testing, plates were removed from the freezer, thawed, and unsealed just prior to the addition of the test cells.

- stability in pre-spotted plates [4]: stable
Compound: CO[C@H]1CC[C@H](N2C(=O)CNc3ncc(-c4ccc(C(C)(C)O)nc4)nc32)CC1 [Compound 1, 7-(6-(2-hydroxypropan-2-yl)pyridin-3-yl)-1-((trans)-4-methoxycyclohexyl)-3,4-dihydropyrazino[2,3-b]pyrazin-2(1H)-one]
- RECIST* (best target lesion response) ([1]; ER+ patients, genes with mutations of interest): SD (8×) and PD (3×) and PR (2×)
- showing RECIST PR ([1]; patients treated with Compound 1, FIG. 1, data as of September 2014): 2/17
- target lesions showing PR ([1]; patients treated with Compound 1, FIG. 1, data as of September 2014, all with PIK3CA mutations): 3/17
- Best overall response ([2]; patients with HCC exp. (expansion)): SD (2×) and NE
- Best overall response ([2]; patients with MM): PD (8×) and NE and SD (4×)
- Best overall response ([2]; patients with NET exp. (expansion)): SD (17×) and PD (2×) and NE and PR
- Best overall response ([2]; patients with NET): SD (18×) and NE (4×) and PR
- Best overall response ([2]; patients with NSCL+): PR and PD
- Best overall response ([2]; patients with NSCLC): NE (6×) and SD (11×) and PD (2×)
- IRF4 protein levels versus sensitivity to growth inhibition ([3]; 37 hematological cancer cell lines, RPPA, FIG. 5): negatively correlated
- IRF4 gene expression level (Probe Set 216986_s_at) versus sensitivity to growth inhibition ([3]; 40 hematological cancer cell lines, FIG. 4): negatively correlated
- sensitivity versus activation of mTORC1 and mTORC2 (biomarker RPPA) ([3]; subgroup of DLBCL lines, FIG. 6): correlated
